{"source": "paper PMC11413503", "about": "“SCR‐7952, a highly selective MAT2A inhibitor, demonstrates synergistic antitumor activities in combination with the S‐adenosylmethionine‐competitive or the methylthioadenosine‐cooperative protein arginine methyltransferase 5 inhibitors in methylthioadenosine phosphorylase‐deleted tumors” (MedComm, 2024)", "key": {"FANCA": {"tested_on": "FANCA", "test": "RT-PCR of FANCA and DI-containing transcripts", "type": "cell-based", "conditions": "72 h"}, "VEGFR2": {"target": "VEGFR2 (Homo sapiens, UniProt P35968)", "test": "Mini-profiling panel, kinase", "type": "biochemical", "conditions": "Kinases; read-out: VEGFR2 Inhibitor IC50"}, "SDMA": {"tested_on": "SDMA", "test": "Immunoblot of SDMA (PRMT5-dependent mark)", "type": "cell-based", "conditions": "96 h, HCT116 MTAP−/− cells"}, "CCKAR": {"target": "CCKAR (Homo sapiens, UniProt P32238)", "sequence (P32238 whole entry, species assumed)": "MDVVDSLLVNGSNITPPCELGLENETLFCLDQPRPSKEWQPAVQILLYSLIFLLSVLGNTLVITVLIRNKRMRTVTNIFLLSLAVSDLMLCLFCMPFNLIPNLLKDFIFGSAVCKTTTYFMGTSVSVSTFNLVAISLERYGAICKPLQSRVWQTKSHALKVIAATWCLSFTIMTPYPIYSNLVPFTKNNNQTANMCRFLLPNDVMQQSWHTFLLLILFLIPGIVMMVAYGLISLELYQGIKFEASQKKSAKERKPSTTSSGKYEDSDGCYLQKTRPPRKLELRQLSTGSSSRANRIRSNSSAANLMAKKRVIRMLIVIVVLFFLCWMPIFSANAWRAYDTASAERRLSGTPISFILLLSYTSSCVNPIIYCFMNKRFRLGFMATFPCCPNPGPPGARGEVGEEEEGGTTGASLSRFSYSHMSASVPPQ", "test": "Mini-profiling panel, GPCR", "type": "cell-based", "conditions": "GPCR Targets"}, "HCT116 MTAP−/− xenograft": {"tested_on": "HCT116 MTAP−/− xenograft", "test": "Xenograft combination treatment study", "type": "in vivo, mice", "conditions": "SCR-7952 0.3 mg/kg alone", "experimental": "(§1) Subcutaneous injections of HCT116 MTAP ^−/− cells were performed (5 × 10^6 cells in 100 µL) into Nu/Nu female mice. Mice were observed daily for the development of tumors. Six days after tumor implantation, mice were randomly distributed into different groups. SCR‐7952, AG‐270, JNJ‐64619178, or vehicle (water with 5% N‐methylpyrrolidone and 10% solutol HS‐15) were daily administrated by oral gavage. Tumor volumes and body weights were recorded three times per week. Tumor volumes were measured in two dimensions using a caliper, and the volume was expressed in mm^3 using the formula: V = (L × W × W)/2, where V is tumor volume, L is tumor length (the longest tumor dimension), and W is tumor width (perpendicular to L). The tumor growth inhibition rate (TGI%) of each dosing group was calculated according to the following formula: %TGI = (1 − (V t(treatment group) − V 0(treatment group))/(V t(vehicle group) − V 0(vehicle group))) × 100%, where V t is average tumor volume of a dosing group on a specific day, V 0 is average tumor volume of a dosing group on the initial day. At the end of the study, plasma and tumor tissues were collected and stored at −80°C for further measurement."}, "EDNRA": {"target": "EDNRA (Homo sapiens, UniProt P25101)", "test": "Mini-profiling panel, GPCR", "type": "cell-based", "conditions": "GPCR Targets"}, "hERG": {"target": "hERG (Homo sapiens, UniProt Q12809)", "test": "Mini-profiling panel, ion channel", "type": "cell-based", "conditions": "Ion Channels; read-out: hERG Blocker IC50"}, "HTR1A": {"target": "HTR1A (Homo sapiens, UniProt P08908)", "test": "Mini-profiling panel, GPCR", "type": "cell-based", "experimental": "(§2) Further insight into selectivity was evaluated in a functional panel of 47 representative targets closely related to human life activities, including G protein‐coupled receptors, transporters, ion channels, kinases, nuclear hormone receptor targets, and nonkinase enzymes (Table S3)."}, "OPRK1": {"target": "OPRK1 (Homo sapiens, UniProt P41145)", "sequence (P41145 whole entry, species assumed)": "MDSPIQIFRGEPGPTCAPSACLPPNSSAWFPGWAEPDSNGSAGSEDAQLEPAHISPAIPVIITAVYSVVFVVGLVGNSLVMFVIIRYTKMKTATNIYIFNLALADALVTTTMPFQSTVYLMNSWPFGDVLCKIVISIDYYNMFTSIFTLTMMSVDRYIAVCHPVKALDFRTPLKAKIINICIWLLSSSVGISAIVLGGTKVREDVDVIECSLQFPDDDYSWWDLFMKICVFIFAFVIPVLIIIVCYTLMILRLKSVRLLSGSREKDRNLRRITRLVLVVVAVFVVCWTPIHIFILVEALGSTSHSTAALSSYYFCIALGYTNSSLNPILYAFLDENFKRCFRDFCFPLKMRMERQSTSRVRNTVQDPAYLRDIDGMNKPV", "test": "Mini-profiling panel, GPCR", "type": "cell-based", "experimental": "as §2"}, "OPRD1": {"target": "OPRD1 (Homo sapiens, UniProt P41143)", "sequence (P41143 whole entry, species assumed)": "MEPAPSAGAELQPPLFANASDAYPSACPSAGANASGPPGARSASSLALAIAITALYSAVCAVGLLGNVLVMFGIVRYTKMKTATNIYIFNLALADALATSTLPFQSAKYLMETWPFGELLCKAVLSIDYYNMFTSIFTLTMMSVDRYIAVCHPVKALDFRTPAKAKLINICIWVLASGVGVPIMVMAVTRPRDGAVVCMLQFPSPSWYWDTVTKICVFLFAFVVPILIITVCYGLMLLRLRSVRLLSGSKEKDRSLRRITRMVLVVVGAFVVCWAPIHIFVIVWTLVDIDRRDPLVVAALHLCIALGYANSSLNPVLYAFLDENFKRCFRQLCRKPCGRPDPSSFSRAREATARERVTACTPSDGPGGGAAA", "test": "Mini-profiling panel, GPCR", "type": "cell-based", "experimental": "as §2"}, "CHRM2": {"target": "CHRM2 (Homo sapiens, UniProt P08172)", "sequence (P08172 whole entry, species assumed)": "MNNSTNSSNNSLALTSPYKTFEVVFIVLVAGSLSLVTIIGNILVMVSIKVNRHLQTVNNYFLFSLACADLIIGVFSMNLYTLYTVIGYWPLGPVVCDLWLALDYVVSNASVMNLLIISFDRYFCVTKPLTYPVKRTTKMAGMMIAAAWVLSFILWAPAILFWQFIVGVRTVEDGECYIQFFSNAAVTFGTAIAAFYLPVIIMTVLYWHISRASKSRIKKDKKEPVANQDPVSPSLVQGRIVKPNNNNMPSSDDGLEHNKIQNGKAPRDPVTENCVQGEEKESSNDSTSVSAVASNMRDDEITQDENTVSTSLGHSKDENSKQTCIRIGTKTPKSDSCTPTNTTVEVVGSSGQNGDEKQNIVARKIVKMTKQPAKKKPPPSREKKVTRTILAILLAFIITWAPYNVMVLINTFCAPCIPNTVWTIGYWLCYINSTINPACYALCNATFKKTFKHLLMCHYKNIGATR", "test": "Mini-profiling panel, GPCR", "type": "cell-based", "experimental": "as §2"}, "CHRM3": {"target": "CHRM3 (Homo sapiens, UniProt P20309)", "sequence (P20309 whole entry, species assumed)": "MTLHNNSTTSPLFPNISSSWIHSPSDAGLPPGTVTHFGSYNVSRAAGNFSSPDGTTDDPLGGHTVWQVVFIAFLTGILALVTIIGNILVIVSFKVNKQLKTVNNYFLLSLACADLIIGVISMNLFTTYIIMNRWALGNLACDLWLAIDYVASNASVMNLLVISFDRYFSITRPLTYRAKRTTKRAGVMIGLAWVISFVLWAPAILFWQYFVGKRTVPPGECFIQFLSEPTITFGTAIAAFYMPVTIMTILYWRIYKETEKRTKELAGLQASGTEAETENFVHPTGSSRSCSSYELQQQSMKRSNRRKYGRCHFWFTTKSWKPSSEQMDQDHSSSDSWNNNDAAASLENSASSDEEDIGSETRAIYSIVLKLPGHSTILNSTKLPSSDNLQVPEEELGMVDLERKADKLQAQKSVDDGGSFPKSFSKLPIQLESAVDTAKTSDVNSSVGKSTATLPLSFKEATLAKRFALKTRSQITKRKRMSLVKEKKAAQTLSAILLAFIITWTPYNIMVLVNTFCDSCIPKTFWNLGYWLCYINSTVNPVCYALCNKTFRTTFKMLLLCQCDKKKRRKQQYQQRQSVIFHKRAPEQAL", "test": "Mini-profiling panel, GPCR", "type": "cell-based", "experimental": "as §2"}, "DRD2S": {"target": "DRD2S (Homo sapiens, UniProt P14416)", "test": "Mini-profiling panel, GPCR", "type": "cell-based", "experimental": "as §2"}, "HTR1B": {"target": "HTR1B (Homo sapiens, UniProt P28222)", "sequence (P28222 whole entry, species assumed)": "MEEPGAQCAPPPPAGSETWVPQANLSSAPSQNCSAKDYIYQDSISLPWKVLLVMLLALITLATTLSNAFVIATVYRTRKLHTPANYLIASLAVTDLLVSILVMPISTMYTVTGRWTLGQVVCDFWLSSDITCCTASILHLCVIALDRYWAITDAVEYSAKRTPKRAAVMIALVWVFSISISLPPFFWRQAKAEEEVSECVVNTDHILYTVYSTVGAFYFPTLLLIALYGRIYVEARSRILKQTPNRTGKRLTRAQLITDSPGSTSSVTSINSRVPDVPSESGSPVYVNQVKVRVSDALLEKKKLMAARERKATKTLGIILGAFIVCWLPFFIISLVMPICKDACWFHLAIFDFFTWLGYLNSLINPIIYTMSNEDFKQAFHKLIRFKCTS", "test": "Mini-profiling panel, GPCR", "type": "cell-based", "experimental": "as §2"}, "CNR1": {"target": "CNR1 (Homo sapiens, UniProt P21554)", "sequence (P21554 whole entry, species assumed)": "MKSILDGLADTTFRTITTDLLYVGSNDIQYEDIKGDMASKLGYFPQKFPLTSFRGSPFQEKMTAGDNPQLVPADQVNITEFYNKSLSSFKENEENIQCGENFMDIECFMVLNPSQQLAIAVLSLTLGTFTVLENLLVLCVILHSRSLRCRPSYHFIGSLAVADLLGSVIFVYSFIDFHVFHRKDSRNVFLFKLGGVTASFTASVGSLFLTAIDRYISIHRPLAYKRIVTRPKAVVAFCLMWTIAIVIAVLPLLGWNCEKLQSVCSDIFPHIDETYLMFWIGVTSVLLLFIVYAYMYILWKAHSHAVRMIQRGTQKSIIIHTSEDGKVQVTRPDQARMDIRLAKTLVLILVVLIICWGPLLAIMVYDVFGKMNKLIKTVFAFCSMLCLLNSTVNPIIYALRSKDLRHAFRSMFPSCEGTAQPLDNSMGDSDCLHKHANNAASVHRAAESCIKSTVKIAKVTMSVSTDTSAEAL", "test": "Mini-profiling panel, GPCR", "type": "cell-based", "experimental": "as §2"}, "CNR2": {"target": "CNR2 (Homo sapiens, UniProt P34972)", "sequence (P34972 whole entry, species assumed)": "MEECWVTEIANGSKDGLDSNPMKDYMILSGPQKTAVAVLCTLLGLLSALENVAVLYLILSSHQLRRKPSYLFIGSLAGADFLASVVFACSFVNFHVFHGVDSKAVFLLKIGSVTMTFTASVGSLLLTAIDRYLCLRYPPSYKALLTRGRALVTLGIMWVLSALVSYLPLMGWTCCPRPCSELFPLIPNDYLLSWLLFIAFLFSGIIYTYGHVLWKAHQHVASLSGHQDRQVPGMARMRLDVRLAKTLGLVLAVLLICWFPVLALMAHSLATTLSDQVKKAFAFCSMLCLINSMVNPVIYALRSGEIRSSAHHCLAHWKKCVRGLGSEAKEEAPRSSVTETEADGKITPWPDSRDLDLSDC", "test": "Mini-profiling panel, GPCR", "type": "cell-based", "experimental": "as §2"}, "CHRM1": {"target": "CHRM1 (Homo sapiens, UniProt P11229)", "sequence (P11229 whole entry, species assumed)": "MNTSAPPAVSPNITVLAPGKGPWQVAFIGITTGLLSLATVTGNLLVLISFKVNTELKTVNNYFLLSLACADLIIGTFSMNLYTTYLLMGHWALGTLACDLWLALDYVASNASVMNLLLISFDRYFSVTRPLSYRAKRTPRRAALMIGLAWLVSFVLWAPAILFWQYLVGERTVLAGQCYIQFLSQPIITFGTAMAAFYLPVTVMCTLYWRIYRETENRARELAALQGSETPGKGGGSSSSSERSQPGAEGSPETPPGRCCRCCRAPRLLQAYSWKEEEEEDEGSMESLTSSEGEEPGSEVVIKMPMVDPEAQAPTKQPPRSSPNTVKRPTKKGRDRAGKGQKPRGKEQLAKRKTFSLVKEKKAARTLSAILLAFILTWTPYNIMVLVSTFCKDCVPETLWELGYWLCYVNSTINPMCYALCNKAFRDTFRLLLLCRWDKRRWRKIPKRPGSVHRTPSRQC", "test": "Mini-profiling panel, GPCR", "type": "cell-based", "experimental": "as §2"}, "DRD1": {"target": "DRD1 (Homo sapiens, UniProt P21728)", "sequence (P21728 whole entry, species assumed)": "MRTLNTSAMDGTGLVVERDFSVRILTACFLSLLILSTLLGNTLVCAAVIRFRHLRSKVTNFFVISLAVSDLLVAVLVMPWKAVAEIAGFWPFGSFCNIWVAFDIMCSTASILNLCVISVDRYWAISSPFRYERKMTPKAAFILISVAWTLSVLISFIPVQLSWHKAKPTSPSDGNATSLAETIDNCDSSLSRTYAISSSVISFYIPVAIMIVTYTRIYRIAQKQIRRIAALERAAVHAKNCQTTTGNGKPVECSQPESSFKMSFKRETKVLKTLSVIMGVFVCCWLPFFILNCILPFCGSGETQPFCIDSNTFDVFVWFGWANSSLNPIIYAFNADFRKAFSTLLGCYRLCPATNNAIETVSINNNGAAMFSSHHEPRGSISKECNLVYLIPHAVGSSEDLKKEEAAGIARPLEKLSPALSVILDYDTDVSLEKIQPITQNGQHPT", "test": "Mini-profiling panel, GPCR", "type": "cell-based", "experimental": "as §2"}, "[1]": {"tested_on": "HCT116 MTAP−/− subcutaneous xenograft", "test": "Xenograft efficacy study, monotherapy", "type": "in vivo, mice", "experimental": "An efficacy study in an HCT116 MTAP ^−/− subcutaneous xenograft mouse model was performed to evaluate the antitumor effect of SCR‐7952, with once daily (q.d.) oral dosing of 0.25, 0.5, 1.0, or 3.0 mg/kg, respectively.\nNu/Nu female mice (6–12 weeks old; Beijing Vital River Laboratory Animal Technology Co., Ltd.) were used for in vivo xenograft studies. All experimental procedures involving animals and their care were in accordance with the State Council Regulations for Laboratory Animal Management (Enacted in 1988) and approved by the Institutional Animal Care and Use Committee of Jiangsu Simcere Pharmaceutical Co., Ltd. (IACUC; Approval No. AP‐056).\nas §1"}, "INSR": {"target": "INSR (Homo sapiens, UniProt P06213)", "test": "Mini-profiling panel, kinase", "type": "biochemical", "conditions": "Kinases; read-out: INSR Inhibitor IC50"}, "MAT2A": {"target": "T1, MAT2A (Homo sapiens, UniProt P31153)", "T1 construct": "purchased Pharmaron 210405‐HWR‐20210429", "T1 sequence (P31153 whole entry)": "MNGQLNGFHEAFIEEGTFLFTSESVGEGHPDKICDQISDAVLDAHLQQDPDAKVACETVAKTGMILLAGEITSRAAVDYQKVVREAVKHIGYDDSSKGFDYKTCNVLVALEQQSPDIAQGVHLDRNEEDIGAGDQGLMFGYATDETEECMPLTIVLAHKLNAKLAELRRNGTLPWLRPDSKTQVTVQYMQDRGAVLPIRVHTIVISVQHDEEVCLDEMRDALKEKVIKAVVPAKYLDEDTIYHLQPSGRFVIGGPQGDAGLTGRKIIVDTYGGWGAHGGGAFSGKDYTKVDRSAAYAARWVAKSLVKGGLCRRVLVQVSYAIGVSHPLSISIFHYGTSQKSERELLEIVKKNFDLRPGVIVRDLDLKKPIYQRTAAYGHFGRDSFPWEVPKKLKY", "test": "SPR binding, single-cycle kinetics", "experimental": "SPR experiments were performed using a BIAcore 8K instrument (Cytiva) at 25°C. A series S sensor chip SA (Cytiva) was docked into the system in 20 mM Bicine‐Na, pH 7.5, 100 mM KCl, 5 mM MgCl2, 0.1 mM TCEP, 0.05% (w/w) Tween‐20, and 2% (v/v) DMSO. The MAT2A protein was captured by Penta‐anti‐His antibody, and the affinity of SCR‐7952 was tested over a suitable dose–response range (12.5–200 nM) by single‐cycle kinetics. The kinetic parameters of SCR‐7952 on MAT2A were fitted via a 1:1 binding model."}, "CAV1.2": {"target": "CAV1.2 (Homo sapiens, UniProt Q13936)", "test": "cell-based"}}, "data": [{"smiles": "Cn1cnc2c(=O)n(-c3cccnc3C3CC3)c3cc(Cl)ccc3c21", "note": "[SCR‐7952, 7‐chloro‐5‐(2‐cyclopropylpyridin‐3‐yl)‐1‐methyl‐1,5‐dihydro‐4H‐imidazo[4,5‐c]quinolin‐4‐one]", "values": [{"measurement": "expression of FANCA DI-containing transcripts", "setting": "FANCA", "result": "significantly upregulated"}, {"measurement": "total levels of FANCA mRNA", "setting": "FANCA", "result": "reduced"}, {"measurement": "IC50", "setting": "VEGFR2", "result": "> 10", "unit": "µM"}, {"measurement": "SDMA level (immunoblot)", "setting": "SDMA", "result": "Significant dose‐dependent reduction"}, {"measurement": "EC50", "setting": "CCKAR; read-out: CCKAR Agonism EC50", "result": "> 10", "unit": "µM"}, {"measurement": "IC50", "setting": "CCKAR; read-out: CCKAR Antagonism IC50", "result": "> 10", "unit": "µM"}, {"measurement": "TGI", "setting": "HCT116 MTAP−/− xenograft", "result": 55.0, "unit": "%"}, {"measurement": "EC50", "setting": "EDNRA; read-out: EDNRA Agonism EC50", "result": "> 10", "unit": "µM"}, {"measurement": "IC50", "setting": "EDNRA; read-out: EDNRA Antagonism IC50", "result": "> 10", "unit": "µM"}, {"measurement": "IC50", "setting": "hERG", "result": "> 10", "unit": "µM"}, {"measurement": "EC50", "setting": "HTR1A", "result": "> 10", "unit": "µM"}, {"measurement": "IC50", "setting": "HTR1A", "result": "> 10", "unit": "µM"}, {"measurement": "EC50", "setting": "OPRK1", "result": "> 10", "unit": "µM"}, {"measurement": "IC50", "setting": "OPRK1", "result": "> 10", "unit": "µM"}, {"measurement": "EC50", "setting": "OPRD1", "result": "> 10", "unit": "µM"}, {"measurement": "IC50", "setting": "OPRD1", "result": "> 10", "unit": "µM"}, {"measurement": "EC50", "setting": "CHRM2", "result": "> 10", "unit": "µM"}, {"measurement": "IC50", "setting": "CHRM2", "result": "> 10", "unit": "µM"}, {"measurement": "EC50", "setting": "CHRM3", "result": "> 10", "unit": "µM"}, {"measurement": "IC50", "setting": "CHRM3", "result": "> 10", "unit": "µM"}, {"measurement": "EC50", "setting": "DRD2S", "result": "> 10", "unit": "µM"}, {"measurement": "IC50", "setting": "DRD2S", "result": "> 10", "unit": "µM"}, {"measurement": "EC50", "setting": "HTR1B", "result": "> 10", "unit": "µM"}, {"measurement": "IC50", "setting": "HTR1B", "result": "> 10", "unit": "µM"}, {"measurement": "EC50", "setting": "CNR1", "result": "> 10", "unit": "µM"}, {"measurement": "IC50", "setting": "CNR1", "result": "> 10", "unit": "µM"}, {"measurement": "EC50", "setting": "CNR2", "result": "> 10", "unit": "µM"}, {"measurement": "IC50", "setting": "CNR2", "result": "> 10", "unit": "µM"}, {"measurement": "EC50", "setting": "CHRM1", "result": "> 10", "unit": "µM"}, {"measurement": "IC50", "setting": "CHRM1", "result": "> 10", "unit": "µM"}, {"measurement": "EC50", "setting": "DRD1", "result": "> 10", "unit": "µM"}, {"measurement": "IC50", "setting": "DRD1", "result": "> 10", "unit": "µM"}, {"measurement": "TGI", "setting": "[1]; SCR-7952 0.5 mg/kg oral q.d.", "result": 60.0, "unit": "%"}, {"measurement": "TGI", "setting": "[1]; SCR-7952 1 mg/kg oral q.d.", "result": 62.7, "unit": "%"}, {"measurement": "TGI", "setting": "[1]; SCR-7952 3.0 mg/kg oral q.d.", "result": 82.9, "unit": "%"}, {"measurement": "IC50", "setting": "INSR", "result": "> 10", "unit": "µM"}, {"measurement": "Kd", "setting": "MAT2A; read-out: dissociation equilibrium constant KD", "result": 0.56, "unit": "nM"}, {"measurement": "kon", "setting": "MAT2A; single-cycle kinetic model, read-out: association rate constant ka", "result": 86700, "unit": "M⁻¹ s⁻¹"}, {"measurement": "koff", "setting": "MAT2A; single-cycle kinetic model, read-out: dissociation rate constant kd", "result": "4.83e-05", "unit": "s⁻¹"}, {"measurement": "IC50", "setting": "CAV1.2", "result": "> 10", "unit": "µM"}]}]}
